Results on 6 compounds are retold here after ChEMBL document CHEMBL1201862, “PubChem BioAssay data set” (2004).

Active and inactive are the calls of the source.

The subject of experiment [1] is Vero. The experiment can be described thus: cytotoxicity of synthesized analogs in Vero cells, SAR follow-up, cytotoxicity control for West Nile virus antiviral project, cell-based, set II (AID 2402). Type of experiment: functional. The following applies: Chlorocebus sabaeus.
Experiment [2] relates to Vero. The experiment can be described thus: Vero E6 cell cytotoxicity, SAR follow-up, cytotoxicity control for West Nile virus antiviral project, synthesized analogs (AID 2244). The following applies: Chlorocebus sabaeus. The format is functional.
The target of experiment [3] is T1, Eukaryotic translation initiation factor 2-alpha kinase 3 (Homo sapiens, UniProt Q9NZJ5). The experiment can be described thus: Dose response cell-based high-throughput screening assay to measure PERK inhibition. [Related pubchem assays: 1416 ]. The format is functional.
Experiment [4] deals with T1, Eukaryotic translation initiation factor 2-alpha kinase 3. The experiment can be described thus: Counterscreen assay for PERK inhibitors: Dose response cell-based high throughput screening assay to measure inhibition of PERK at 6 hours. [Related pubchem assays: 1522, 1416 ]. The format is functional.
In experiment [5] the test system is Streptococcus sp. 'group A'. The experiment can be described thus: growth inhibition of control SK(-) GAS strain, dose response, counter-screen for streptokinase expression inhibitor project, luminescence, kanamycin, BacTiterGlo, confirmation (AID 1900). The format is functional, organism-based.
Experiment [6] has as its target Serine/threonine-protein phosphatase PP1-alpha catalytic subunit (Homo sapiens, UniProt P62136). The experiment is described as follows: PP1 phosphatase inhibitors, dose response, biochemical, fluorescence (AID 2403).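 Note: phosphatase turnover of OMFP into fluorescent 3-O-methylfluorescein.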
A further experiment deals with T2, Streptokinase A (Streptococcus pyogenes serotype M1, UniProt P10520).
T2 sequence (P10520 whole entry): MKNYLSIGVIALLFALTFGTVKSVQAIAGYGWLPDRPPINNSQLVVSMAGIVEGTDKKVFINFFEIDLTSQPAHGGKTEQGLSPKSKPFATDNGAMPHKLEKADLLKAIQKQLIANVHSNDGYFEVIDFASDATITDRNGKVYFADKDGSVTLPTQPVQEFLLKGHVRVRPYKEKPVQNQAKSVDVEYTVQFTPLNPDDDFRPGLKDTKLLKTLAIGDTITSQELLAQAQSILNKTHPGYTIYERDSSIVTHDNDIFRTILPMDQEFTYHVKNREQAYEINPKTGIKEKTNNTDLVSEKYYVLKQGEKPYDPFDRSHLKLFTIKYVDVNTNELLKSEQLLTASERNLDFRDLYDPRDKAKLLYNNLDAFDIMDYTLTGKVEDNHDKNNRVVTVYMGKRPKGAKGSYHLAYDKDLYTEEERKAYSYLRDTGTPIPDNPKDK
The experiment can be described thus: S. pyogenes streptokinase expression inhibitors, potency, dose response, plasminogen activation absorbance, OD405 (AID 1914).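 Note: secreted streptokinase activity via plasminogen activation per viability signal from cell pellet.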 Type of experiment: functional, Streptococcus pyogenes M1 GAS.

Experiment [7] can be described thus: inhibitors of intracellular T. cruzi replication, confirmation, NIH3T3 host cells, beta-gal luminescence (AID 2044).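 Note: intracellular parasites grown in NIH/3T3 mouse fibroblasts as host cells; luminescent beta-galactosidase reporter signal from transgenic T. cruzi replicating inside host cells; inhibitors lower the luminescence signal.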 The format is functional, cell-based.
Experiment [8] addresses Serine/threonine-protein phosphatase (Homo sapiens, UniProt Q9BPW0). The experiment can be described thus: Counterscreen for inhibitors of PP1: fluorescence-based biochemical high throughput dose response assay to identify inhibitors of Protein Phosphatase 5 (PP5). [Related pubchem assays: 2034 (Summary (PP5 inhibitors)), 1987 (PP5 inhibitors in singlate), 2235 (PP1 inhibitors in singlate)].

Experiment [9] is described as follows: cytotoxicity toward NIH3T3 fibroblasts, dose response, counter-screen, cell-based, ATP luminescence, mouse fibroblasts (AID 2010).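 Note: cells exposed to compound for about 90 hours before reading.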 The format is functional.
The subject of another experiment is Streptococcus. The experiment is described as follows: Group A Streptococcus viability loss, dose response, counter-screen for streptokinase expression inhibitor project, luminescence, BacTiterGlo (AID 1915).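 Note: potency for reduction of bacterial viability or growth.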 Type of experiment: functional, organism-based.
For a further experiment, the target named is T3, Aminopeptidase N (Plasmodium falciparum FcB1/Columbia, UniProt O96935).
T3 sequence (O96935 whole entry): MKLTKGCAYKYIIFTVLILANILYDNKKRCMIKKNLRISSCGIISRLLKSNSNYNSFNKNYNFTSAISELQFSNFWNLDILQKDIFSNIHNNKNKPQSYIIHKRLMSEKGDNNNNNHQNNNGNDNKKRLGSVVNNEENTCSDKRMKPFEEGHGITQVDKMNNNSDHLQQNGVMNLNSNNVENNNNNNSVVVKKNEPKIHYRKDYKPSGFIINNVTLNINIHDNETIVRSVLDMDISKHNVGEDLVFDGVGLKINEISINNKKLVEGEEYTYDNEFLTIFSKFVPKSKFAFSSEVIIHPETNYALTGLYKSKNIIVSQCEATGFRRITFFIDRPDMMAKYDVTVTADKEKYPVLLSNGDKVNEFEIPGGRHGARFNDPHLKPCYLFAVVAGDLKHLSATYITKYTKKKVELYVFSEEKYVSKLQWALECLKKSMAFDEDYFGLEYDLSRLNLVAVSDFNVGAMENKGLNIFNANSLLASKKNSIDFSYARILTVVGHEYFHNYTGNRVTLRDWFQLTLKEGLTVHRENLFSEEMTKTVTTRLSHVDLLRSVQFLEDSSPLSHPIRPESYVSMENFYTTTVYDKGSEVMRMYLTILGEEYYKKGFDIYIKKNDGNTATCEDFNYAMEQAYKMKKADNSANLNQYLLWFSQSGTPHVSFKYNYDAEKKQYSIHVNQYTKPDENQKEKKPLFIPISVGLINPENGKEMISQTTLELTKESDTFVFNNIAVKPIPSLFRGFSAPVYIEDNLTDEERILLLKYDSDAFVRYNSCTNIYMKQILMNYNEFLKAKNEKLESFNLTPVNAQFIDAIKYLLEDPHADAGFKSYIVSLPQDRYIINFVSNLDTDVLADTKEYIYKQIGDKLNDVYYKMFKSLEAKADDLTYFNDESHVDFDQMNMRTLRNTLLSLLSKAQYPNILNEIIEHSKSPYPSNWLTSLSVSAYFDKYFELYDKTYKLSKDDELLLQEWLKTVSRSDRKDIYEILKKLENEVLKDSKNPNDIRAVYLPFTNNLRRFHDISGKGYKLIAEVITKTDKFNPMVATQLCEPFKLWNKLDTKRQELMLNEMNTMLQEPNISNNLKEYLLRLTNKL
The experiment is described as follows: P. falciparum M1AAP inhibitors, biochemical, fluorogenic H-Leu-NHMec substrate, 1536-well (AID 1445). The arrangement: species or system Plasmodium falciparum 3D7, 3D7.

Experiment [10] can be described thus: M. tuberculosis H37Rv growth inhibitors, H37Rv strain (AID 1626). Type of experiment: functional.
The nature of experiment [11]: inhibitors of Bluetongue virus cytopathic effect, confirmation, arbovirus, BSR cells (AID 1250).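 Note: protection from viral cytopathic effect measured as cell viability by ATP luminescence.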 The format is functional.
The next experiment concerns the target Melanocortin receptor 4 (Homo sapiens, UniProt P32245). The experiment is described as follows: MC4R antagonist potency on cAMP, dose response, cell-based, TR-FRET, biased antagonists (AID 602298).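 Note: antagonist potency against agonist-stimulated cAMP production.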 The format is functional.
Experiment [12] can be described thus: nonselective inhibitors of cellular cAMP signaling, dose response, counter-screen for MC4R biased antagonist project, cell-based, TR-FRET cAMP detection (AID 602305).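 Note: U2OS cells stimulated with forskolin near its EC80 as the cAMP inducer; potency is for inhibition of forskolin-stimulated cAMP signaling.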 The format is functional.
Experiment [13] addresses T4, Sphingosine 1-phosphate receptor 4 (Homo sapiens, UniProt O95977).
T4 sequence (O95977 whole entry): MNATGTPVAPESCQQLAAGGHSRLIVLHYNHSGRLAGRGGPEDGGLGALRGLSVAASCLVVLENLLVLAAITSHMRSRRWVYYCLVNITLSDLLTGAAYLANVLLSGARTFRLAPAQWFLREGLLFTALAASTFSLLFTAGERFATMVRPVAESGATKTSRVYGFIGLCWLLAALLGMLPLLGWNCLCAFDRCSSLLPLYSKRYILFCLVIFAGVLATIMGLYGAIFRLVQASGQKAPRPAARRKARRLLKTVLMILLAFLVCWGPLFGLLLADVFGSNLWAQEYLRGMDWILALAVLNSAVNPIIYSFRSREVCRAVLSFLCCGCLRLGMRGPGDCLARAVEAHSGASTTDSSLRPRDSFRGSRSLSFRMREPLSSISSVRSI
The experiment is described as follows: Late stage fluorescence dose response cell-based screening assay for antagonists of the Sphingosine 1-Phosphate Receptor 4 (S1P4). [Related pubchem assays: 1524 (Confirmation screen (S1P4 antagonists).), 1510 (Primary screen (S1P4 antagonists).), 1853 (Summary AID (S1P4 antagonists).), 1692 (Dose response screen (S1P4 antagonists).)]. The format is functional.

Experiment [14] addresses T4, Sphingosine 1-phosphate receptor 4. The experiment can be described thus: Fluorescence dose response cell-based high throughput screening assay for antagonists of the Sphingosine 1-Phosphate Receptor 4 (S1P4). [Related pubchem assays: 1524 (Confirmation in triplicates.), 1510 (Primary screen.)]. Type of experiment: functional.
The target of experiment [15] is Sphingosine 1-phosphate receptor 1 (Homo sapiens, UniProt P21453). Type of experiment: functional.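 Note: Tango beta-arrestin reporter U2OS cells stimulated with S1P near its EC80; inhibitor potency meaning antagonism of receptor activation by the natural agonist.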
The target of experiment [16] is FAD-linked sulfhydryl oxidase ALR (Homo sapiens, UniProt P55789). The experiment can be described thus: inhibitors of human ALR sulfhydryl oxidase, dose response, biochemical, H2O2 detection, luminescence, cherry-pick (AID 493248).
For the next experiment, the system named is INS1. The experiment is described as follows: beta cell apoptosis inhibitors, cytokine rescue, dose response, luminescence, retest (AID 449756).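 Note: cell death triggered by IL-1 beta plus TNF-alpha plus IFN-gamma mixture; protective hits raise ATP signal compared with cytokine alone wells.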 The format is functional, cell-based. Particulars: Rattus norvegicus.
A short description of experiment [17]: Fluorescence-based cell-based high throughput dose response assay for inhibitors of the interaction of nucleotide-binding oligomerization domain containing 2 (NOD2) and the receptor-interacting serine-threonine kinase 2 (RIPK2). The format is functional. Particulars: Homo sapiens.
For another experiment, the target named is Paired box protein Pax-8 (Homo sapiens, UniProt Q06710). The experiment is described as follows: inhibitors of PAX8-driven TPO luciferase reporter, dose response, RMG-I cells, cherry-pick (AID 687027).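 Note: luciferase reporter driven by Pax8 target thyroperoxidase promoter measured by SteadyGlo luminescence.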 Type of experiment: functional, cell-based.
A short description of experiment [18]: A549 cell cytotoxicity, dose response, cytotoxicity control, plate reader, cherry-pick, antagonist series (AID 743412). Type of experiment: functional, cell-based.
A short description of experiment [19]: HepG2 cell cytotoxicity, dose response, cytotoxicity control, plate reader, cherry-pick, antagonist series (AID 743416). The format is functional, cell-based.
Experiment [20] in a line: LGR2 antagonists, dose response, cell-based, HEK293, CRE-luciferase reporter, cherry pick, set 2 (AID 743343).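 Note: transfected cells were stimulated with diluted bursicon conditioned medium after compound addition.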 Type of experiment: functional.
Experiment [21] in a line: MC4R antagonists, dose response, counter-screen for LGR2 antagonist project, cell-based, plate reader, cherry pick (AID 743444).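 Note: transfected HEK 293 cells stimulated with alpha-MSH peptide; potency of inhibitors of the alpha-MSH evoked signal.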 The format is functional.
Experiment [22] can be described thus: HEK293 cell cytotoxicity, dose response, cytotoxicity control, plate reader, cherry-picked samples (AID 743446). The format is functional, cell-based.
The nature of experiment [23]: enhancers of respiration in Yfh1-depleted yeast, dose response, Friedreich's ataxia, plus single-dose screen (AID 1465).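 Note: yeast depleted of Yfh1p frataxin homolog grown on glycerol needing respiration; WST-1 tetrazolium dye reduction as measure of cellular dehydrogenase metabolic activity.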 Type of experiment: functional.

T1 sequence (Q9NZJ5 whole entry): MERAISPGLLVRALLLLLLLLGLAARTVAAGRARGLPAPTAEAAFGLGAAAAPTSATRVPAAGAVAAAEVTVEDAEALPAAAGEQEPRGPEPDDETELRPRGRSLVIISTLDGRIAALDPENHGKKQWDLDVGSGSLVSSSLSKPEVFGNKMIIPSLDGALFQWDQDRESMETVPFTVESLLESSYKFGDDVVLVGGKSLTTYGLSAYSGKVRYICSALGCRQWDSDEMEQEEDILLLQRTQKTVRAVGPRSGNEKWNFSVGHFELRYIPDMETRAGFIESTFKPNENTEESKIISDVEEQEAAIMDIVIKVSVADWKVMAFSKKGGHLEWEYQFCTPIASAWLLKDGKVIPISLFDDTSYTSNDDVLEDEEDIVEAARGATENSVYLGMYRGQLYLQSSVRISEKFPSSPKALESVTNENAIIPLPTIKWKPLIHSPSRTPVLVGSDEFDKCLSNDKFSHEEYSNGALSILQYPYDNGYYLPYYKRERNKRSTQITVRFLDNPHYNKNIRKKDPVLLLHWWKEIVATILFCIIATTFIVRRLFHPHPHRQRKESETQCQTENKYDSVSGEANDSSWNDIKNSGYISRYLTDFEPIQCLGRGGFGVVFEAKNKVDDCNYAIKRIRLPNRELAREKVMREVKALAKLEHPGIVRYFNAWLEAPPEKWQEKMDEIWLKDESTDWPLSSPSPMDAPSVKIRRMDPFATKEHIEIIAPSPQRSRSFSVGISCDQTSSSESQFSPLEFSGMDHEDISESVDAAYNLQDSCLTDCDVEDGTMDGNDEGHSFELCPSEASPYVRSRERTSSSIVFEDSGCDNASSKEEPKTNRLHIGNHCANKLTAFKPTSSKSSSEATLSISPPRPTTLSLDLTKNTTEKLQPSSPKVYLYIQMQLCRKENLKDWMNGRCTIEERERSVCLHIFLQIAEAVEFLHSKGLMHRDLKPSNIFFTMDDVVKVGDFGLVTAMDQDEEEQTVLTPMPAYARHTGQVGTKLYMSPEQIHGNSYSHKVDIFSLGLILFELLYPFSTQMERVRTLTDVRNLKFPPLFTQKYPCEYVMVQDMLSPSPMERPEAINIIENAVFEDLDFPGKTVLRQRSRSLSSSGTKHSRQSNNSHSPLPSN
Sequence of FAD-linked sulfhydryl oxidase ALR (P55789 whole entry): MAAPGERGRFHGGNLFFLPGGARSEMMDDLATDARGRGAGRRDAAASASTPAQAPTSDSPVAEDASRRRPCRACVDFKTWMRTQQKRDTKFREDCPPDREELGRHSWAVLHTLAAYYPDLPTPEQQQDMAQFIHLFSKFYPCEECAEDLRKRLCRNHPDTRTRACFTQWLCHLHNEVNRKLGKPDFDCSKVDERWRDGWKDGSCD
Sequence of Serine/threonine-protein phosphatase PP1-alpha catalytic subunit (P62136 whole entry): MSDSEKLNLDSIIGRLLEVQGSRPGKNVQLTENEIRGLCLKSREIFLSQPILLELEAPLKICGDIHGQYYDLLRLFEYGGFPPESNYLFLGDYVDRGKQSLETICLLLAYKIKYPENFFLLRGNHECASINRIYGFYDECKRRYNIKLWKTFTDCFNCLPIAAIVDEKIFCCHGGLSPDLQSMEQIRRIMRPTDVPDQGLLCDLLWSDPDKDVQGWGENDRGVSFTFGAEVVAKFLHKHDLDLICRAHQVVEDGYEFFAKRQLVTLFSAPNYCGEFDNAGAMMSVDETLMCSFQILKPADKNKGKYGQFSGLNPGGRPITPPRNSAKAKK
Sequence of Sphingosine 1-phosphate receptor 1 (P21453 whole entry): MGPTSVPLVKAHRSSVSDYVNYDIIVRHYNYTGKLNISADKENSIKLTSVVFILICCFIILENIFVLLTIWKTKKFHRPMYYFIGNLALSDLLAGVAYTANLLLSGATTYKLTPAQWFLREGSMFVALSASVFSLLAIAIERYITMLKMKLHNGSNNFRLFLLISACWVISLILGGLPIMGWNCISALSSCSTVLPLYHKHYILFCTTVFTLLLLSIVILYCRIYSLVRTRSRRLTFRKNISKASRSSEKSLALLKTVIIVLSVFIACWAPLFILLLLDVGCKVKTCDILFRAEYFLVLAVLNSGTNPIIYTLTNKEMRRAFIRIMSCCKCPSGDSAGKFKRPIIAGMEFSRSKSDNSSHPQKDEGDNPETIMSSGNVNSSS
Sequence of Melanocortin receptor 4 (P32245 whole entry): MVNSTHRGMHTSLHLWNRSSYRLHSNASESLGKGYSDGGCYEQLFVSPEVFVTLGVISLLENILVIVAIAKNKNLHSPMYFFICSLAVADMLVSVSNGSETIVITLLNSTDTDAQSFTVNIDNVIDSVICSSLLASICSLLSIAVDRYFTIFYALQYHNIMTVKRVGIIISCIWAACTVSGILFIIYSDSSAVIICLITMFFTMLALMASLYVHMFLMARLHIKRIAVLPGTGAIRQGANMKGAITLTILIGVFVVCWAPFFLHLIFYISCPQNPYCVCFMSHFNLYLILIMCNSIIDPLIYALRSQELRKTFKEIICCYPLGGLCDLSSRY
Sequence of Paired box protein Pax-8 (Q06710 whole entry): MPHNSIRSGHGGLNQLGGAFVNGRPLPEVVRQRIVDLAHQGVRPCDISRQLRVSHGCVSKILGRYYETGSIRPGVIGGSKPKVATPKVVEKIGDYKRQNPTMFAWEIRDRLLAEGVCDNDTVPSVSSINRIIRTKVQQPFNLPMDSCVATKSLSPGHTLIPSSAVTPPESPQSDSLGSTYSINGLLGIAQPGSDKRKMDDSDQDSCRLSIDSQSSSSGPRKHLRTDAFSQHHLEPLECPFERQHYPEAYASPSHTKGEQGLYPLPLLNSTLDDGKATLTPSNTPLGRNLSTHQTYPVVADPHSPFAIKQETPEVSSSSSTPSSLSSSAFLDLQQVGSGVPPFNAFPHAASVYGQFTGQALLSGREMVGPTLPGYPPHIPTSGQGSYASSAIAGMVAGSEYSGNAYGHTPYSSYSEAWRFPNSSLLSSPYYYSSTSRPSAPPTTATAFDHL
Sequence of Serine/threonine-protein phosphatase (Q9BPW0 whole entry): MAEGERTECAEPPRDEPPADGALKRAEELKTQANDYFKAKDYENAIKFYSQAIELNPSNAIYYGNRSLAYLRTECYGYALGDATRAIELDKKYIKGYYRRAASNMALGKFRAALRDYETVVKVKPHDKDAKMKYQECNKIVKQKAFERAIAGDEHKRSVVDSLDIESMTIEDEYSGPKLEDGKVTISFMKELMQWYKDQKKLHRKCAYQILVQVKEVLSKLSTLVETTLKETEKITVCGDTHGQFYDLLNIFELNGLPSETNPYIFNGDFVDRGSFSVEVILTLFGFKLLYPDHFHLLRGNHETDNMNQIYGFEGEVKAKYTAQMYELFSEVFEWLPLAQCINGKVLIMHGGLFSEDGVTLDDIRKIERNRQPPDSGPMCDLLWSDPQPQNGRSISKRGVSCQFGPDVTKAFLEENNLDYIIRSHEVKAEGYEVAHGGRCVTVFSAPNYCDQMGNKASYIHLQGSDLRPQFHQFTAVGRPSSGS

Turning to `CCCN(C(=O)c1ccccc1Cl)c1nc(-c2ccc(OC)cc2)cs1`, the 50% cytotoxic concentration (CC50) was 63.2 µM (active) with Vero [1] and > 40 µM (active) in the experiment on Vero [2].
On to `COc1cc([N+](=O)[O-])cc2sc(NC(=O)C(C)(C)C)nc12`, for which the EC50 in experiment [3] and in experiment [4] was > 55.7 µM (not active) each time.
Consider `COc1ccc(OCCCC(=O)Nc2nc(-c3ccccn3)cs2)cc1`, for which the EC50 in experiment [5] is 31.2 µM (active); on Streptokinase A, > 150 µM (not active); in experiment [7] it was 3.24 µM (active); in [9] it was 4.35 µM (active); with Streptococcus, > 150 µM (not active). Also, the half-maximal inhibitory concentration (IC50) in [6] was 4.59 µM (active); in [8] it was > 67 µM (not active).
As to `CCOc1ccc2nc(NC(=O)CSc3nc(O)c(C#N)c(-c4ccccc4)n3)sc2c1`, the IC50 is 24.1 µM (active) on Aminopeptidase N; > 100 µM (active) in experiment [10]; 37.9 µM (active) in experiment [11]; > 64.6 µM (inactive) on Melanocortin receptor 4; > 64.6 µM (inactive) in experiment [12].
In the case of `COc1ccc([N+](=O)[O-])c(S(=O)(=O)c2ccccc2)n1`, the half-inhibitory concentration (IC50) is 1.42 µM (not active) in experiment [13], 0.691 µM (active) in experiment [14], 7.19 µM (active) in [15] and 3.15 µM (active) in experiment [17]. Also, the concentration at half-maximal activity (AC50) was 0.501 µM (active) in [16]; 7.12 µM (active) in the experiment on INS1; 8.18 µM (active) at Paired box protein Pax-8; 8.75 µM (active) in [18]; 7.56 µM (active) in [19]; 4.61 µM (active) in experiment [20]. Moreover, the half-maximal activity concentration (AC50) in experiment [21] is 4.27 µM (active); in [22] it was 8.06 µM (active).
`CCCC(C(=O)O)N1C(=O)/C(=C/c2cccn2C)SC1=S` (centres undefined): the 50% effective concentration (EC50) in experiment [23] is > 100 µM (active).
